Test results reported in patent publication US20080286216A1, “Surface Active Calcium Phosphates” (priority 2005, published 2008).

Key:
[1] = test system: people living in fluoridated areas; settings: fluoride in drinking water; cited from earlier work
[2] = test system: human dental plaque microcosm biofilms; test: Tooth remineralisation: mineral deposition in dental plaque microcosm biofilms (Wong et al. method); assay type: cell-based; settings: conclusion of Example 16
Experimental: This example investigated the tooth remineralisation properties of a complex according to the invention.
BMM: basal medium mucin models the nutrients present in saliva and was prepared following Wong et al, “Calcium phosphate deposition in human dental plaque microcosm biofilms induced by a ureolytic pH-rise procedure” Archives of Oral Biology 47 (2002) 779-790
The complex according to the invention was tested for its tooth remineralisation properties using the methodology described in Wong et al, “Calcium phosphate deposition in human dental plaque microcosm biofilms induced by a ureolytic pH-rise procedure” Archives of Oral Biology 47 (2002) 779-790.
Ca & P units: mmol/g protein, F units: μmol/g protein
Mineralisation regime: 14 days mineralisation; 3 doses of testing composition and 10% sucrose daily

In the case of `F` [fluoride], the “aesthetically unacceptable changes to the appearance of teeth” value [1] is given as “at least 12.5%” and the incidence of fluorosis [1] is given as no more than 48%.
With “Stearamidopropyl Dimethylamine Glycerophosphate [Example 14]” the tooth remineralisation properties [2] was “has tooth remineralisation properties”.
